Reference: ChEMBL document CHEMBL1201862, “PubChem BioAssay data set” (2004)
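Values below derive from 48-hour exposures of cells grown in 96-well plates, with endpoints linearly interpolated between the two concentrations bracketing the appropriate inhibition level. GI50 marks 50% less growth.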 The source made the active and inactive calls. Rule as the data show it: active = GI50 up to about 1.1 µM and inactive = higher.

Assays:
Assay in all cases: growth of human tumour cells (NCI), 48 h
[1] = tested on: 786-0
[2] = tested on: A498
[3] = tested on: A549
[4] = tested on: ACHN
[5] = tested on: CAKI-1
[6] = tested on: CCRF-CEM
[7] = tested on: COLO 205
[8] = tested on: DU-145
[9] = tested on: EKVX
[10] = tested on: HCC 2998
[11] = tested on: HCT-116
[12] = tested on: HCT-15
[13] = tested on: HL-60
[14] = tested on: HOP-62
[15] = tested on: HOP-92
[16] = tested on: HT-29
[17] = tested on: Hs-578T
[18] = tested on: IGROV-1
[19] = tested on: K562
[20] = tested on: KM12
[21] = tested on: LOX IMVI
[22] = tested on: M14
[23] = tested on: MCF7
[24] = tested on: MDA-MB-231
[25] = tested on: MDA-MB-435
[26] = tested on: MDA-N
[27] = tested on: MOLT-4
[28] = tested on: Malme-3M
[29] = tested on: NCI-H226
[30] = tested on: NCI-H23
[31] = tested on: NCI-H460
[32] = tested on: NCI-H522
[33] = tested on: NCI/ADR-RES
[34] = tested on: OVCAR-3
[35] = tested on: OVCAR-5
[36] = tested on: OVCAR-8
[37] = tested on: PC-3
[38] = tested on: RPMI-8226
[39] = tested on: RXF 393
[40] = tested on: SF-268
[41] = tested on: SF-295
[42] = tested on: SF-539
[43] = tested on: SK-MEL-28
[44] = tested on: SK-MEL-2
[45] = tested on: SK-MEL-5
[46] = tested on: SK-OV-3
[47] = tested on: SN12C
[48] = tested on: SNB-19
[49] = tested on: SNB-75
[50] = tested on: SW-620
[51] = tested on: T47D
[52] = tested on: TK-10
[53] = tested on: U-251
[54] = tested on: UACC-257
[55] = tested on: UACC-62
[56] = tested on: UO-31

CCN(CC)CC(O)C1CCC(c2ccccc2)CC1 (stereo unspecified)
GI50 [1]: 15.6 µM (inactive)
GI50 [2]: 14.4 µM (inactive)
GI50 [3]: 32.6 µM (inactive)
GI50 [4]: 18 µM (inactive)
GI50 [5]: 19 µM (inactive)
GI50 [6]: 27.4 µM (inactive)
GI50 [7]: 12.8 µM (inactive)
GI50 [8]: 61 µM (inactive)
GI50 [9]: 0.437 µM (active)
GI50 [10]: 0.627 µM (active)
GI50 [11]: 23.2 µM (inactive)
GI50 [12]: 13.2 µM
GI50 [13]: 28.9 µM (inactive)
GI50 [14]: 30.9 µM (inactive)
GI50 [15]: 18.6 µM (inactive)
GI50 [16]: 10.5 µM (inactive)
GI50 [17]: 30.5 µM (inactive)
GI50 [18]: 35.2 µM (inactive)
GI50 [19]: 26.8 µM (inactive)
GI50 [20]: 24 µM (inactive)
GI50 [21]: 17.4 µM (inactive)
GI50 [22]: 25.1 µM (inactive)
GI50 [23]: 22.5 µM (inactive)
GI50 [24]: 17.1 µM (inactive)
GI50 [25]: 17.1 µM (inactive)
GI50 [26]: 16.3 µM (inactive)
GI50 [27]: 43.8 µM (inactive)
GI50 [28]: 16.3 µM (inactive)
GI50 [29]: 15.8 µM (inactive)
GI50 [30]: 30.4 µM (inactive)
GI50 [31]: 25.6 µM (inactive)
GI50 [32]: 16.2 µM (inactive)
GI50 [33]: 43.2 µM (inactive)
GI50 [34]: 44 µM (inactive)
GI50 [35]: 23.2 µM (inactive)
GI50 [36]: 16.3 µM (inactive)
GI50 [37]: 43.6 µM (inactive)
GI50 [38]: 13.5 µM (inactive)
GI50 [39]: 17.4 µM (inactive)
GI50 [40]: 31.6 µM (inactive)
GI50 [41]: 17.1 µM (inactive)
GI50 [42]: 16.7 µM (inactive)
GI50 [43]: 25.6 µM (inactive)
GI50 [44]: 16.7 µM (inactive)
GI50 [45]: 13.7 µM (inactive)
GI50 [46]: 16.1 µM (inactive)
GI50 [47]: 39.7 µM (inactive)
GI50 [48]: 25.8 µM (inactive)
GI50 [49]: 23.7 µM (inactive)
GI50 [50]: 24.8 µM (inactive)
GI50 [51]: 26.9 µM (inactive)
GI50 [52]: 15.3 µM (inactive)
GI50 [53]: 19.8 µM (inactive)
GI50 [54]: 21 µM (inactive)
GI50 [55]: 15.6 µM (inactive)
GI50 [56]: 14.8 µM (inactive)
